# Where “and” joins values, the source holds several entries; their conditions need not be identical. Equal entries are not always repeated. Calls of active or inactive are those of the source. The calls were made as follows: active = viability on the fitted dose curve at most 10% of control; inactive = the rest.
# Tested on: NCI-H841 complex tumor spheroid viability
# Experiment: Anticancer human tumor NCI-H841 cell line growth inhibition;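 as to IC50: spheroids exposed to compounds for 7 days before readout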;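 as to viability, T/C: spheroids exposed to compounds for 7 days before readout; 100% = DMSO vehicle control wells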
# Conditions: for viability, T/C: stronger effect = lower value
# From the text: Multicellular complex tumor spheroid response to DNA repair inhibitors in combination with DNA-damaging drugs
# This study explores the anticancer activities of DNA-damaging drugs and inhibitors of DNA damage repair, both as single agents and in combinations. Complex tumor spheroids comprised of malignant cells, endothelial cells and mesenchymal stem cells served as an in vitro model for human solid tumors. This model system incorporates physiologically relevant features and patient-derived or established malignant cell lines with clinically relevant genetic alterations from many tumor types. Twenty-six patient-derived or established malignant cell lines were evaluated representing sarcoma, melanoma, small cell lung cancer (SCLC), non-small cell lung cancer (NSCLC), as well as bladder, ovarian and pancreatic cancers. The concentration ranges selected for each drug and investigational agent were based upon clinically achievable concentrations if the clinical Cmax of the agent was known.
# Compounds. The drugs and compounds olaparib (NSC753686), talazoparib (NSC767125), berzosertib (NSC777718), elimusertib (NSC800525), nedisertib (NSC802822), VX-984 (NSC792969), AZD-1390 (NSC803789), temozolomide (NSC362856), topotecan (NSC609699), trabectedin (NSC813783), staurosporine (NSC755774), and gemcitabine (NSC613327) were obtained from the National Cancer Institute (NCI) Developmental Therapeutics Program Chemical Repository. The FDA-approved anticancer drug set is available from the Developmental Therapeutics Program at https://dtp.cancer.gov/organization/dscb/obtaining/available_plates.htm. […] The stock solutions were prepared in dimethyl sulfoxide (DMSO, Sigma-Aldrich, St. Louis, MO, cat. D2650) at 400-fold the tested concentration and stored at -70 degrees C. Prior to their use, the stock solutions were diluted in fresh medium and the final DMSO concentration in the assay was 0.25% (v/v). All drugs and investigational agents were tested over a range starting from a high concentration at or near the clinical Cmax and decreasing in half-log increments. If the clinical Cmax for an agent had not been determined, the highest concentration tested was 10 microM.
# Cell Lines. The patient-derived cancer cell (PDC) lines: 156681-154-R-J1-PDC, 283228-195-R-J1-PDC, 287954-098-R-J1-PDC, 292921-168-R-J2-PDC, 349418-098-R-PDC, 425362-245-T-J1-PDC, 556581-035-R-J1-PDC, and BL0293-F563-PDC were received from the NCI Patient-Derived Models Repository (PDMR, https://pdmr.cancer.gov). The established cell lines HS-SY-2 (RRID:CVCL_8719), MPNST, and SYO-1 (RRID:CVCL_7146) were obtained from the Sloan Kettering Institute. The alveolar soft parts sarcoma cell line ASPS-1 (RRID:CVCL_S738) was established at the NCI and grown from internal seed stocks. The following established cell lines were purchased from the American Type Culture Collection (ATCC, Manassas, VA): G-401 (ATCC, cat. CRL-1441, RRID:CVCL_0270), SW982 (ATCC, cat. HTB-93, RRID:CVCL_1734), VA-ES-BJ (ATCC, cat. CRL-2138, RRID:CVCL_1785), NCI-H719 (ATCC, cat. CRL-5837, RRID:CVCL_1582), NCI-H196 (ATCC, cat. CRL-5823, RRID:CVCL_1509), NCI-H841 (ATCC, cat. CRL-5845, RRID:CVCL_1595), NCI-H1618 (ATCC, cat. CRL-5879, RRID:CVCL_1480), NCI-H1876 (ATCC, cat. CRL-5902, RRID:CVCL_1503), DMS 114 (ATCC, cat. CRL-2066; RRID:CVCL_1174), NCI-H211 (ATCC, cat. CRL-5824; RRID:CVCL_1529), and SW 1271 (ATCC, cat. CRL-2177, RRID:CVCL_1716). The small cell lung cancer cell line COR-L88 was purchased from Sigma-Aldrich (cat. 92031917-1VL, RRID:CVCL_1141). The non-small cell lung cancer cell lines NCI-H226 (RRID:CVCL_1544) and NCI-H322M (RRID:CVCL_1557) were established at the NCI and grown from internal seed stocks. Pooled donor human umbilical vein endothelial cells (HUVEC, Lonza, cat. CC-2519) and human mesenchymal stem cells (hMSC, Lonza, cat. PT-2501) were purchased from Lonza (Walkersville, MD).
# Cell Culture. All cells were maintained in an incubator at 37 degrees C and 5% CO2 with 95% humidity. […]
# [1] = curve of first compound, second compound 0.003 µM
# [2] = second compound 0.003 µM, first compound 0.0316 µM
# [3] = second compound 0.003 µM, first compound 0.1 µM
# [4] = second compound 0.003 µM, first compound 0.316 µM
# [5] = second compound 0.003 µM, first compound 1 µM
# [6] = second compound 0.003 µM, first compound 3.16 µM
# [7] = second compound 0.003 µM, first compound 10 µM
# [8] = curve of first compound, second compound 0.00949 µM
# [9] = curve of first compound, second compound 0.03 µM
# [10] = curve of first compound, second compound 0.0949 µM
# [11] = curve of first compound, second compound 0.3 µM
# [12] = second compound 0.00949 µM, first compound 0.0316 µM
# [13] = second compound 0.00949 µM, first compound 0.1 µM
# [14] = second compound 0.00949 µM, first compound 0.316 µM
# [15] = second compound 0.00949 µM, first compound 1 µM
# [16] = second compound 0.00949 µM, first compound 3.16 µM
# [17] = second compound 0.00949 µM, first compound 10 µM
# [18] = second compound 0.03 µM, first compound 0.0316 µM
# [19] = second compound 0.03 µM, first compound 0.1 µM
# [20] = second compound 0.03 µM, first compound 0.316 µM
# [21] = second compound 0.03 µM, first compound 1 µM
# [22] = second compound 0.03 µM, first compound 3.16 µM
# [23] = second compound 0.03 µM, first compound 10 µM
# [24] = second compound 0.0949 µM, first compound 0.0316 µM
# [25] = second compound 0.0949 µM, first compound 0.1 µM
# [26] = second compound 0.0949 µM, first compound 0.316 µM
# [27] = second compound 0.0949 µM, first compound 1 µM
# [28] = second compound 0.0949 µM, first compound 3.16 µM
# [29] = second compound 0.0949 µM, first compound 10 µM
# [30] = second compound 0.3 µM, first compound 0.0316 µM
# [31] = second compound 0.3 µM, first compound 0.1 µM
# [32] = second compound 0.3 µM, first compound 0.316 µM
# [33] = second compound 0.3 µM, first compound 1 µM
# [34] = second compound 0.3 µM, first compound 3.16 µM
# [35] = second compound 0.3 µM, first compound 10 µM
smiles,measurement,setting,value
[2H]c1nc(C)nc([2H])c1-c1cc(NC[C@@H](C)c2cccc3c(C(=O)NC)ccnc23)ncn1 + COc1cc2c(cc1O)CCNC21CSC2c3c(OC(C)=O)c(C)c4c(c3C(COC1=O)N1C(O)C3Cc5cc(C)c(OC)c(O)c5C(C21)N3C)OCO4,IC50,"curve of first compound, second compound 30 pM",> 10000 nM
same,IC50,"curve of first compound, second compound 94.9 pM",> 10000 nM
same,IC50,"curve of first compound, second compound 0.0003 µM",< 31.6 nM
same,IC50,"curve of first compound, second compound 0.000949 µM",< 31.6 nM
same,IC50,[1],< 31.6 nM
same,"viability, T/C","second compound 30 pM, first compound 0.0316 µM",98.7%
same,"viability, T/C","second compound 30 pM, first compound 0.1 µM",101%
same,"viability, T/C","second compound 30 pM, first compound 0.316 µM",102%
same,"viability, T/C","second compound 30 pM, first compound 1 µM",99.4%
same,"viability, T/C","second compound 30 pM, first compound 3.16 µM",97.2%
same,"viability, T/C","second compound 30 pM, first compound 10 µM",96.2%
same,"viability, T/C","second compound 94.9 pM, first compound 0.0316 µM",101%
same,"viability, T/C","second compound 94.9 pM, first compound 0.1 µM",102%
same,"viability, T/C","second compound 94.9 pM, first compound 0.316 µM",98%
same,"viability, T/C","second compound 94.9 pM, first compound 1 µM",96.9%
same,"viability, T/C","second compound 94.9 pM, first compound 3.16 µM",96.9%
same,"viability, T/C","second compound 94.9 pM, first compound 10 µM",93%
same,"viability, T/C","second compound 0.0003 µM, first compound 0.0316 µM",40%
same,"viability, T/C","second compound 0.0003 µM, first compound 0.1 µM",47.3%
same,"viability, T/C","second compound 0.0003 µM, first compound 0.316 µM",38.3%
same,"viability, T/C","second compound 0.0003 µM, first compound 1 µM",34.7%
same,"viability, T/C","second compound 0.0003 µM, first compound 3.16 µM",39.7%
same,"viability, T/C","second compound 0.0003 µM, first compound 10 µM",20.1%
same,"viability, T/C","second compound 0.000949 µM, first compound 0.0316 µM",3.9%
same,"viability, T/C","second compound 0.000949 µM, first compound 0.1 µM",2.99%
same,"viability, T/C","second compound 0.000949 µM, first compound 0.316 µM",3.31%
same,"viability, T/C","second compound 0.000949 µM, first compound 1 µM",3.19%
same,"viability, T/C","second compound 0.000949 µM, first compound 3.16 µM",3.35%
same,"viability, T/C","second compound 0.000949 µM, first compound 10 µM",3.46%
same,"viability, T/C",[2],0.12%
same,"viability, T/C",[3],0.1%
same,"viability, T/C",[4],0.1%
same,"viability, T/C",[5],0.1%
same,"viability, T/C",[6],0.12%
same,"viability, T/C",[7],0.17%
COc1ccc([C@@H](O)c2cc(-c3ncnc4cc(N5CCOCC5)ccc34)c(F)cc2Cl)nn1,"viability, T/C",compound 0.0316 µM,97.7% and 102% and 99.6%
same,"viability, T/C",compound 0.1 µM,101% and 104% and 99.6%
same,"viability, T/C",compound 0.316 µM,95.7% and 99% and 96.2%
same,outcome,compound 1 µM,inactive
same,"viability, T/C",compound 1 µM,93.4% and 89.9%
same,"viability, T/C",compound 3.16 µM,67% and 34.4% and 73.9%
same,"viability, T/C",compound 10 µM,13.7% and 8.86% and 17%
same,IC50,curve of compound,4570 nM and 2150 nM and 5090 nM
CC(C)n1c(=O)n(C)c2cnc3cc(F)c(-c4ccc(OCCCN5CCCCC5)nc4)cc3c21 + CC[C@@]1(O)C(=O)OCc2c1cc1n(c2=O)Cc2cc3c(CN(C)C)c(O)ccc3nc2-1,IC50,[1],< 31.6 nM
same,IC50,[8],< 31.6 nM
same,IC50,[9],< 31.6 nM
same,IC50,[10],< 31.6 nM
same,IC50,[11],< 31.6 nM
same,"viability, T/C",[2],47%
same,"viability, T/C",[3],51.3%
same,"viability, T/C",[4],56.6%
same,"viability, T/C",[5],63.5%
same,"viability, T/C",[6],65.1%
same,"viability, T/C",[7],43.2%
same,"viability, T/C",[12],4.68%
same,"viability, T/C",[13],4.13%
same,"viability, T/C",[14],6.57%
same,"viability, T/C",[15],6.6%
same,"viability, T/C",[16],10.3%
same,"viability, T/C",[17],7.04%
same,"viability, T/C",[18],1.24%
same,"viability, T/C",[19],1.19%
same,"viability, T/C",[20],1.09%
same,"viability, T/C",[21],1.3%
same,"viability, T/C",[22],1.9%
same,"viability, T/C",[23],2.19%
same,"viability, T/C",[24],2.12%
same,"viability, T/C",[25],1.53%
same,"viability, T/C",[26],1.21%
same,"viability, T/C",[27],1.06%
same,"viability, T/C",[28],1.07%
same,"viability, T/C",[29],1.41%
same,"viability, T/C",[30],2.29%
same,"viability, T/C",[31],2.08%
same,"viability, T/C",[32],1.55%
same,"viability, T/C",[33],0.71%
same,"viability, T/C",[34],0.65%
same,"viability, T/C",[35],0.78%
Cc1cc(C)c(CNC(=O)c2cc(-c3ccc(CN4CCOCC4)cc3)cc3c2cnn3C2CCCC2)c(=O)[nH]1 + CC[C@@]1(O)C(=O)OCc2c1cc1n(c2=O)Cc2cc3c(CN(C)C)c(O)ccc3nc2-1,IC50,[1],5600 nM
same,IC50,[8],713 nM
same,IC50,[9],< 31.6 nM
same,IC50,[10],< 31.6 nM
same,IC50,[11],< 31.6 nM
same,"viability, T/C",[2],93.6%
same,"viability, T/C",[3],94.4%
same,"viability, T/C",[4],91.9%
same,"viability, T/C",[5],83.5%
same,"viability, T/C",[6],65.2%
same,"viability, T/C",[7],34.7%
same,"viability, T/C",[12],69.6%
same,"viability, T/C",[13],60.8%
same,"viability, T/C",[14],63.4%
same,"viability, T/C",[15],44.7%
same,"viability, T/C",[16],21.7%
same,"viability, T/C",[17],9.9%
same,"viability, T/C",[18],2.88%
same,"viability, T/C",[19],2.59%
same,"viability, T/C",[20],2.6%
same,"viability, T/C",[21],1.45%
same,"viability, T/C",[22],1.14%
same,"viability, T/C",[23],1.49%
same,"viability, T/C",[24],1.83%
same,"viability, T/C",[25],1.47%
same,"viability, T/C",[26],1.42%
same,"viability, T/C",[27],1.4%
same,"viability, T/C",[28],1.41%
same,"viability, T/C",[29],1.58%
same,"viability, T/C",[30],7.2%
same,"viability, T/C",[31],1.62%
same,"viability, T/C",[32],1.88%
same,"viability, T/C",[33],1.53%
same,"viability, T/C",[34],1.17%
same,"viability, T/C",[35],4.17%

# Reference: PubChem BioAssay AID1845213 (Molecular Pharmacology Branch, DTP, NCI, 2023)
